# Experiment: Human HepG2 cell viability assay in 384 well format
# Assay type: toxicity, cell-based
# Set-up: dose 125 nL, time 70.5 hour; concentration not given beside the values
# Settings: HepG2 cells, read-out: Inhibition
row,SMILES,cytotoxicity at 70.5 h
1,CCn1c(C)nnc1SCCNC(=O)c1cnc(C(C)(C)C)nc1O,14.5%
2,COCCn1cnnc1CNc1cc(C)nc2c(C)c(C)nn12,-5.61%
3,Cc1noc(C)c1C1CCCN1C(=O)c1cn2ccsc2n1 (stereo not drawn),-3.13%
4,CCCSc1nc(O)c(CC)c(=O)n1-c1ccccc1,-6.46%
5,CC[C@H]1COCCN1C(=O)c1cnc(-c2ccccc2)nc1C,-5.37%
6,Cc1cccc(C(=O)N2CC(=O)N(c3ccccc3Cl)CC2C)n1 (stereo not drawn),49.8%
7,c1cncc(NCCNC2CSCCSC2)c1,5.88%
8,O=c1c2ccccc2cnn1Cc1cncn1C1CC1,-6.14%
9,Cn1ccnc1SCCNc1ccnc(C(F)(F)F)n1,-2.76%
10,Cc1nnc(CN(C)C2CCN(c3cccc(-c4cscn4)c3)CC2)o1,-3.22%
11,O=C1[C@@H]2CN(c3ncnc4sccc34)C[C@]2(C(=O)O)CN1CC1CC1,-11.3%
12,Cc1nn(C)cc1-c1ccnc(N(C)Cc2cccs2)n1,2.52%
13,CCC[C@H]1CN(S(C)(=O)=O)C[C@@H]1NC(=O)CCOCC,-2.88%
14,CN1CCCN(c2nc(C3CCCC3)nc3c2cnn3C)CC1,14.5%
15,CC(Nc1nccc(CCC(F)(F)F)n1)c1nc(-c2ccncc2)no1 (stereo not drawn),-13.3%
16,CN1C(=O)C2(CCCN(C(=O)c3ccc(=O)n(C)n3)C2)c2ccccc21 (stereo not drawn),0.808%
17,CC(=O)N1CCCC(C(=O)N2Cc3nc(C)n(C)c(=O)c3C2)C1 (stereo not drawn),-3.08%
18,Cn1cc(CN2CCC[C@]3(C(=O)O)CN(c4cnccn4)CC[C@@H]23)cn1,-2.41%
19,CN(Cc1cccc(-n2cccn2)c1)Cc1cccs1,-11%
20,COCc1c(C(=O)N2CCCC(C(=O)c3nccn3C)C2)noc1C (stereo not drawn),-1.47%
21,CCc1nc(C)sc1CNC1CCN(Cc2ccccc2)C1 (stereo not drawn),8.22%
22,CC[C@H]1CN(C(=O)c2cnc(N3CCN(C)CC3)nc2C)CC[C@@]1(C)O,-7.86%
23,COc1ccc(C(=O)C2CCCN(Cc3ccncc3)C2)cc1OC (stereo not drawn),-3.65%

row,SMILES,cytotoxicity at 70.5 h
1,Cc1nnsc1C(=O)N1CCN(CC2CC2)[C@@H]2CS(=O)(=O)C[C@@H]21,-13.8%
2,O=C(NC1CC1)C1CNCCN1C(=O)COc1ccc2c(c1)OCO2 (stereo not drawn),-5.08%
3,CN(CCCc1cnn(C)c1)C(=O)C1CCN(C(=O)C2CCC2)CC1,-10.7%
4,CCC(CC)NCC(C)Oc1cccnc1 (stereo not drawn),-2.86%
5,CN1CC=C(CCN(C)C(=O)CCc2ccccc2)CC1,-6.34%
6,Cc1cccc(SC2CCN(C(=O)CCCS(N)(=O)=O)CC2)c1,-6.67%
7,Cc1cncc(C(=O)N2CCN(c3cnn(C)c(=O)c3)CC2)c1,-6.5%
8,CC1=C(CCN2CCCC(O)C2)C(C)(C)CCC1 (stereo not drawn),18.9%
9,CSc1cccc(CN2CCn3nc(CNC(C)=O)cc3C2)c1,5.2%
10,COc1c(F)cc(F)cc1-c1nc2c([nH]1)CCNC2,14.9%
11,Cc1ccc2occ(CN3CCN(c4ncccn4)CC3)c(=O)c2c1,29.4%
12,N[C@@H]1CC[C@@H](NC(=O)c2ccccc2OC(F)(F)C(F)F)C1,16%
13,CC(C)=CCN1C[C@@H](C(=O)O)C[C@H](C(=O)Nc2ccc(C)nc2)C1,-8.07%
14,Cc1ccc(S(=O)(=O)N2C[C@H](C3CC3)[C@@H](N)C2)cc1F,-3.15%
15,O=C(CC1COCCN1)NCCc1noc(-c2ccccc2)n1 (stereo not drawn),-2.33%
16,Cc1cccc(C)c1NC(=O)NCC1CCCN(C2CCOCC2)C1 (stereo not drawn),-8.66%
17,CCc1nnc(N[C@H](C)c2cccc(OC)c2)o1,-20.2%
18,CCCc1nc(C(=O)N2CCN(S(=O)(=O)CC)CC2)cs1,10.2%
19,O=C(COCc1ccccc1)N1CCCn2cncc2C1,-4.83%
20,CCN1CCC(NN2CCN(C)CC2)CC1,-4.47%
21,O=C(O)[C@@]12CN(c3cnccn3)C[C@@H]1CN(C1CCCC1)C2,-7.64%
22,COc1coc(CN2CCCC(CCc3ccccc3C)C2)cc1=O (stereo not drawn),2.52%
23,CCOc1ccc(C(=O)N2Cc3cnc(CC)nc3C2)o1,-3.48%

row,SMILES,cytotoxicity at 70.5 h
1,CCCN1CCC(NN2CCN(C)CC2)CC1,-6.76%
2,CCCN1CCC(Nc2cc(-c3ccccc3)ccc2OC)CC1,0.639%
3,CCc1nc(N2CCN(c3ncccc3C#N)CC2)c2cnn(C)c2n1,22%
4,CNc1ncc(CN(C)c2nccc(CCC(F)(F)F)n2)cn1,-2.35%
5,Cc1nc(CN(C)Cc2nc(-c3ccccc3)no2)co1,-1.63%
6,CCn1c(CC2CCN(C(=O)C3CCOC3)CC2)nn(C)c1=O (stereo not drawn),32.2%
7,COc1cc(F)ccc1C(C(=O)O)N(C)CCN1CCOCC1 (stereo not drawn),15.1%
8,COc1ccccc1-n1cc(C(=O)NCCn2nc(C)nc2C)cn1,-9.92%
9,CC(Cn1cncn1)NCc1n[nH]c2c1CCCCC2 (stereo not drawn),-10.2%
10,CN(C)C(C(=O)N1CCC(c2ncc[nH]2)CC1)c1ccc2c(c1)OCO2 (stereo not drawn),-5.4%
11,COc1ccccc1N1CCN(C(=O)Cn2nc(C)cc2C)CC1(C)C,-14.1%
12,COc1ccc(F)c(CN2CCCC3(CCN(C4CCOCC4)C3)C2)c1 (stereo not drawn),-4.15%
13,O=C1CCC(C(=O)N(Cc2ccsc2)CC2CCCO2)=NN1 (stereo not drawn),-0.382%
14,CC(C)Cc1noc(CN(C)C(=O)CCNC(=O)c2ccccc2F)n1,-8.23%
15,Cc1csc(CNc2ccc(-c3nc(C4CC4)no3)cn2)n1,-5.44%
16,O=S(=O)(c1c(Cl)nc2sccn12)N1CCC2(CCNCC2)C1,-6.41%
17,COCC[C@]1(O)CCN(CC(=O)NCc2ccccn2)C[C@H]1C,5.51%
18,C=Cc1cccc(CN2CCCn3nc(CNS(C)(=O)=O)cc3C2)c1,-3.84%
19,O=C(Nc1ccc2c(c1)OCO2)N1CCN(CCc2ccccc2)CC1,-6.84%
20,c1cc2ccc(N3CCN(Cc4ccc5c(c4)OCO5)CC3)nc2[nH]1,-4.53%
21,Cc1c(CN(C)c2cc(C3CCCNC3)ncn2)[nH]c2ccccc12 (stereo not drawn),-14.2%
22,CCC(C)N(Cc1cccnc1)C(=O)c1ccc(F)c(O)c1 (stereo not drawn),12.9%
23,O=C(c1cn(CC(=O)N2CCCCCC2)c2ccccc12)C1CC1,-7.67%

row,SMILES,cytotoxicity at 70.5 h
1,CCC[C@@H]1CN(Cc2ccccc2SC)C[C@H]1NC(C)=O,-5.44%
2,COc1cccc(S(=O)(=O)N2CCCCC2CCN2CCOCC2)c1 (stereo not drawn),24.6%
3,CCN1CC2(CCN(C(=O)C(C)Oc3ccc(F)cc3Cl)CC2)CC1=O (stereo not drawn),25%
4,CCCc1nc(N2CC[C@@H](c3ccc4ccccc4c3)[C@H](O)C2)no1,-0.24%
5,CCn1c(CC2CCN(C(=O)C3COCCO3)CC2)nn(C)c1=O (stereo not drawn),42.7%
6,Cc1cnc(N2CC[C@@]3(O)CCCC[C@H]3C2)nc1-c1ccnn1C,-7.52%
7,O=C(c1ccc(S(=O)(=O)NC2CCC2)cc1)N1CC[C@H]2CNC[C@H]21,-3.93%
8,Cc1nnsc1C(=O)NCc1cccnc1N1CCCC(O)C1 (stereo not drawn),-15.1%
9,Cc1ccccc1CN(Cc1ccncc1)CC(C)C,-4.55%
10,CC(C1CCN(Cc2ccc(N(C)C)nc2)CC1)N(C)C (stereo not drawn),-2.39%
11,COC1CCN(S(=O)(=O)N2CC[C@@](O)(C3CCC3)[C@H](C)C2)CC1,-11.9%
12,CC(C)[C@H]1CN(Cc2ccncc2)C[C@@H]1NC(=O)C1(C#N)CCOCC1,-1.7%
13,CNc1ccc(C(=O)N(C)Cc2ccc3ccccc3n2)cn1,-8.44%
14,COCCN(C)Cc1cc(Cl)ccc1OCC(O)CN1CCCCCC1 (stereo not drawn),-11.6%
15,Cc1cc(C)cc(CCC(=O)N(C)CCc2cn[nH]c2)c1,-14.2%
16,O=C(O)c1cccnc1CN1CCOc2ccccc2C1,-9.48%
17,CCC(=O)N1CCC(n2cc(C(C)(C)O)nn2)CC1,-6.93%
18,COC(=O)[C@@H]1C[C@@H](NC(=O)CN2C(=O)N(C)Cc3ccccc32)CN1C,-3.77%
19,CCn1ncnc1C1CC(=O)NCc2nc(N)sc21 (stereo not drawn),27.6%
20,CCc1cnc(C)nc1NCCC(=O)N1CCC(C)CC1,-0.743%
21,CCCN1C[C@H]2CC[C@@H]1CN(Cc1cccc(-n3cccn3)c1)C2,-0.983%
22,COc1ccccc1N1CCC(N2CCOC(C(F)(F)F)C2)CC1 (stereo not drawn),-3.26%
23,O=C(C1CCOCC1)N1CCC(OCc2cccnc2)CC1,-12%

row,SMILES,cytotoxicity at 70.5 h
1,NC1CCCc2c1cnn2-c1cc(F)cc(F)c1 (stereo not drawn),-4.65%
2,O=C1CC2(CCN(CC3CC3)CC2)CN1Cc1cc(F)cc(F)c1,-2.81%
3,CCOc1ccnc(NCCc2nc(C)cc(=O)[nH]2)n1,-2.38%
4,O=C(c1cnc(Cc2c(Cl)cccc2Cl)nc1O)N1CCNCC1,8.34%
5,COCCN(Cc1ccccn1)C(=O)C1CCCCCN1C (stereo not drawn),-9.93%
6,Cc1cc(C)c2nc(CN(C)C(C)c3ccncn3)cc(O)c2c1 (stereo not drawn),-4.38%
7,CCN1CC2(CCC1=O)CCN(CCOc1ccc(F)cc1)CC2,-13%
8,Cc1ccc(C#N)c(N2CCC3(CCC(=O)N(CC(N)=O)C3)CC2)n1,-9.24%
9,O=C(O)C1(Cc2ccccc2Cl)CCN(c2ncnc3[nH]ccc23)CC1,10.8%
10,CSc1ncc(C(=O)N2C[C@H]3CC[C@@H]2CN(S(=O)(=O)N(C)C)C3)cn1,-1.22%
11,CC(C)(N)c1cn(C2CCN(C3CCSCC3)CC2)nn1,-6.81%
12,COCc1cc(N2CCN(Cc3ccncc3)CC2)n2nccc2n1,-1.74%
13,COc1ccc2c(c1)CCN(Cc1cscn1)CC2,-0.57%
14,CCC(Cn1ccnc1)n1cnc2scc(C)c2c1=O (stereo not drawn),13.9%
15,Cc1cc(N2CCC3(CC2)C(C(=O)O)CC(=O)N3C)nc2ccccc12 (stereo not drawn),-6.81%
16,Cn1c(CN2CCOCC2)nnc1C1CCCN(CC(N)=O)C1 (stereo not drawn),3.41%
17,COCC(O)CNC(=O)c1coc(COc2ccc3sc(C)nc3c2)n1 (stereo not drawn),-9.49%
18,CCN(CC)S(=O)(=O)N1CCCC(c2cccc(C(=O)O)c2)C1 (stereo not drawn),-6.99%
19,CCOc1ccc(-c2ccnc(CC)n2)cc1C(=O)O,-7.1%
20,O=C(Cc1ccccn1)N1C[C@@H]2CC[C@H](C1)N(Cc1ccccc1)C2=O,6.93%
21,CCNC(=O)c1ccnc(NCC2COc3cc(OC)ccc3C2)c1 (stereo not drawn),-3.26%

# Source: ChEMBL document CHEMBL3507680, “University of Dundee, Gates Library screen for HepG2 cell viability”
